Results: patent US20190185865A1, “USE OF PROKARYOTIC TRANSCRIPTIONAL ACTIVATORS AS METABOLITE BIOSENSORS IN EUKARYOTIC CELLS” (Danmarks Tekniske Universitet, priority 2016, published 2019)
Values joined by “and” are separate entries in the source; they are usually repeats but may differ in a detail not shown here. Equal entries are not always repeated.

Tests used:
[1] = Solubility in growth medium; format: physicochemical; details: aqueous buffer, read-out: highest soluble CCM concentration
BenM^H110R, F211V, Y286N = target: T1, BenM^H110R, F211V, Y286N (Acinetobacter baylyi, UniProt O68014, F211V/H110R/Y286N); test: CCM biosensor output versus CCM titers in CCM-producing yeast strains (HPLC, flow cytometry); format: cell-based
T1 construct: expressed in transfected cells; host or cells: Saccharomyces cerevisiae; centromeric plasmid (gap repair) or chromosomal integration, REV1p
Description: The CCM production strains were cultivated in 24-deep well plate with air-penetrable lids (EnzyScreen) to test for the production of CCM. Colonies from the individual strain were inoculated in 1 mL synthetic drop-out medium (Sigma-Aldrich), selecting for URA, HIS and LEU markers, and grown at 30° C. with 250 rpm agitation at 5 cm orbit cast for 24 h. 300 μL of the overnight cultures were used to inoculate 3 mL mineral medium (pH 4.5) in 24-deep well plate and incubated for 24-72 h at the same conditions as above. Experiments were performed in triplicates. The culture broth was centrifuged 3,500×rpm and the supernatant analyzed for CCM concentration using HPLC. For this purpose, samples were analyzed for 45 min using Aminex HPX-87H ion exclusion column with a 1 mM H2SO4 flow of 0.6 mL/min. The temperature of the column was 60° C. Refractive index and UV detectors (Dionex) were used for detection of CCM (250 nm). CCM concentrations were quantified by comparison with the spectrum of the standards. […] Naringenin was quantified using a quadratic calibration curve with authentic standards ranging from 0.039 mg/I to 20 mg/I using QuanLynx software (Waters).
Events were analyzed using FlowJo software (TreeStar Inc.). […]

T1 sequence (O68014 whole entry H110R/F211V/Y286N): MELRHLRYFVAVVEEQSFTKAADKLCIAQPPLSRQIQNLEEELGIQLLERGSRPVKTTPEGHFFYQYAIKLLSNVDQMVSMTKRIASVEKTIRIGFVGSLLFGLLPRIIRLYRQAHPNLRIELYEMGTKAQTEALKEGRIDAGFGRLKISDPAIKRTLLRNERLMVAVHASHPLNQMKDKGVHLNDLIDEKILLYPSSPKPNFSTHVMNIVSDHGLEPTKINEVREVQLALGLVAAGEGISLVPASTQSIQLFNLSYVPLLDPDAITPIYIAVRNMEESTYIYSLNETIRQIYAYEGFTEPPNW

O=C(O)/C=C\C=C/C(=O)O [CCM, cis, cis-muconic acid]
solubility [1]: 1400 µM and 200 µg/mL
titers at which GFP outputs were saturated (BenM^H110R, F211V, Y286N; 72 h of cultivation): > 1.41 mM and > 200 mg/L
correlation (r) between GFP output and CCM production titers (BenM^H110R, F211V, Y286N; six CCM production strains and null strain, 24 h): 0.98
